# Assay results published in article PMC8387043, “Host Poly(A) Polymerases PAPD5 and PAPD7 Provide Two Layers of Protection That Ensure the Integrity and Stability of Hepatitis B Virus RNA” (Journal of Virology, 2021).
# Key:
# HBV [1] = assay: Antiviral assay in HBV-infected primary human hepatocytes (PHH); assay type: cell-based; settings: Hepatitis B virus, Hepatocyte
# WNV = assay: Antiviral selectivity panel, CPE in Vero76 cells; assay type: cell-based; settings: West Nile virus, Vero 76
# Experimental: (§1) HepG2.2.15 (30,000 cells/well) were plated in 96-well collagen-treated plates and incubated at 37°C. Compounds were half-log serially diluted and added in duplicate to 96-well microtiter plates. The plates were incubated for a total duration of 6 days, after which the culture medium was removed for the HBsAg and HBeAg CLIA assays (AutoBio Diagnostics Co., China) performed according to the manufacturer’s instructions. Secreted HBV DNA was extracted (Realtime Ready cell lysis kit; Roche, Mannheim, Germany) and quantified in a qPCR assay (LightCycler 480 SYBR green I master mix; Roche) with the 5′-[…]-3′ (sense) and 5′-[…]-3′ (antisense) primers using the PCR conditions of denaturing at 95°C for 5 min followed by 40 cycles of amplification at 95°C for 15 s and 60°C for 30 s. Antiviral selectivity studies against a panel of different DNA and RNA viruses were performed at ImQuest BioSicences (Frederick, MD, USA). Briefly, test compounds were evaluated using 6 doses, including the highest concentration of 30 μM and five serial half-logarithmic dilutions in triplicate for the antiviral assays.
# HBV [2] = assay: HBV replication intermediates and viral proteins in HepG2.2.15 cells (Northern, Western, particle gel, Southern); assay type: cell-based, hepatitis B virus; settings: HepG2.2.15, 6 days; ETV, GLS-4, cmpdA 1 μM; AB-452 70 nM
# Experimental: Total cellular RNA was extracted from HepG2.2.15 or HepAD38 cells treated with or without antiviral compounds using TRIzol reagent according to the manufacturer's directions (Thermo Fisher Scientific, Waltham, MA). Northern blotting was performed as described previously ([1]). Briefly, total RNA was separated in a 1.5% agarose gel and transferred onto an Amersham Hybond-XL membrane (product no. GERPN303S; GE Healthcare, IL, USA). Membranes were probed with an [α-^32P]UTP (PerkinElmer, CT, USA)-labeled minus strand-specific full-length HBV riboprobe (3.2 kb) transcribed from plasmid pSP65_HBV(+) DNA. Membranes were exposed to a phosphoimager screen, and the hybridization signals were quantified using Image Studio software (Li-Cor Biosciences, NE, USA).
# Total intracellular viral core-associated DNA was extracted as described previously ([1]) and analyzed by Southern blotting hybridization with an [α-^32P]UTP-labeled full-length HBV riboprobe (3.2 kb) that specifically hybridized to minus strand of viral DNA. Membranes were exposed to a phosphoimager screen, and the hybridization signals were quantified using Image Studio software.
# HepG2.2.15 or HepAD38 cells cultured in a 12-well plate were lysed with 200 μl Laemmli sample buffer (Bio-Rad, PA, USA) supplemented with 2.5% 2-mercaptoethanol (Sigma-Aldrich, MO, USA). […]
# HBV [3] = assay: Antiviral assay in HBV-infected HepG2-NTCP cells; assay type: cell-based; settings: Hepatitis B virus
# [4] = Cytotoxicity (summary statement); assay type: cell-based; settings: several cell lines from different tissue origins; 30 μM highest concentration tested
# HBV RNA poly(A) tails = assay: HBV sRNA poly(A) tail NGS in HepG2-NTCP WT and KO clones
# Influenza = assay: organism not typed; assay type: cell-based; settings: MDBK, CPE
# [5] = tested on: panel of 10 different RNA and DNA viruses; assay: Antiviral selectivity panel (summary statement); assay type: cell-based; settings: read-out: EC50 against a panel of 10 different RNA and DNA viruses
# Experimental: as §1
# HIV = assay: Antiviral selectivity panel, CPE in CEM-SS cells; assay type: cell-based; settings: Human immunodeficiency virus 1
# HSV-1/HSV-2 = assay: Antiviral selectivity panel, CPE in Vero cells; assay type: cell-based, herpes simplex virus
# Experimental: as §1
# RSV = assay: Antiviral selectivity panel, CPE in HEp2 cells; assay type: cell-based; settings: human respiratory syncytial virus, HEp-2
smiles,measurement,setting,value
COCCCOc1cc2c(nc1OC)-c1cc(=O)c(C(=O)O)cn1[C@H](C(C)C)C2 [AB-452],EC50,HBV [1]; read-out: HBV DNA EC50,4.2 ± 3.8 nM
same,EC50,HBV [1]; read-out: HBeAg EC50,3.7 ± 1.3 nM
same,EC50,HBV [1]; read-out: HBsAg EC50,3 ± 2.1 nM
same,EC50,WNV,> 30000 nM
same,Effect on HBV replication intermediates and viral proteins,HBV [2],"reducing intracellular pgRNA, sRNA, core protein, native capsids, encapsidated pgRNA, and replicating HBV DNA"
same,EC50,HBV [3]; read-out: HBeAg EC50,4 ± 2.3 nM
same,EC50,HBV [3]; read-out: HBsAg EC50,6.8 ± 1.8 nM
same,CC50,[4],> 30000 nM
same,poly(A) tail length after treatment,"HBV RNA poly(A) tails; WT and P7_KO cells, untreated >136 bp",~60 bp
same,guanylation frequency of sRNA after treatment,"HBV RNA poly(A) tails; WT and P7_KO cells, untreated ∼50%",~10%
same,guanosine incorporation,"HBV RNA poly(A) tails; Z14_KO and PAPD5/7_DKO cells, with and without AB-452",~10%
same,EC50,Influenza,> 30000 nM
same,EC50,[5],> 30000 nM
same,EC50,HIV,> 30000 nM
same,EC50,HSV-1/HSV-2,> 30000 nM
same,EC50,RSV,> 30000 nM
